“And” between values parts separate entries of the source, which are not always exact repeats. Equal entries are not always repeated.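 Five concentrations, 48 hours, 96-well plates. Abbreviation: GI50, concentration required for 50% inhibition of growth. TGI is the concentration that stops growth completely.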

Test systems include U251 CNS; HOP-92 NSCLC; MDA-MB-435; HCT-15 colon; OVCAR-5 ovarian; A549 NSCLC; UO-31 renal; MDA-N; HT29 colon; COLO 205 colon.
What all share (assay): NCI-60 cell line screen, 48 h

Consider `CC(=O)c1c(-c2cccc3ccccc23)c(C#N)c(=S)n(C2OC(CO)C(O)C(O)C2O)c1C` (stereo not given), for which the GI50 in the assay on U251 CNS was > 100 µM and 48.9 µM; in the assay with MDA-MB-435, > 100 µM and 46.9 µM. Besides, the TGI in the assay on U251 CNS, with HOP-92 NSCLC, in the assay on MDA-MB-435, in the assay with HCT-15 colon, in the assay on OVCAR-5 ovarian and in the assay on A549 NSCLC was over 100 µM throughout. In addition, the TGI in the assay with UO-31 renal, in the assay with MDA-N, in the assay on HT29 colon and in the assay with COLO 205 colon was over 100 µM in each case.
With `CC(=O)Nc1ccc2c(C)c3c(nc2n1)[nH]c1ccccc13`, the TGI in the assay on U251 CNS is over 100 µM; in the assay with HOP-92 NSCLC it was 79 µM; in the assay with MDA-MB-435, 87.3 µM; in the assay with HCT-15 colon, 64.5 µM; in the assay on OVCAR-5 ovarian, over 100 µM; with A549 NSCLC, over 100 µM. For the same compound, the TGI with UO-31 renal is over 100 µM; in the assay on MDA-N, 44 µM; in the assay with HT29 colon, over 100 µM; in the assay with COLO 205 colon, 32 µM.
In the case of `O=c1[nH]c2nc3ccccc3c(=O)n2/c1=C/c1ccc(Cl)cc1`, the TGI with U251 CNS is over 100 µM; in the assay with HOP-92 NSCLC it was over 100 µM; with MDA-MB-435, 58.5 µM; in the assay on HCT-15 colon it was over 100 µM; in the assay with OVCAR-5 ovarian, over 100 µM; with A549 NSCLC, over 100 µM. In addition, the TGI in the assay on UO-31 renal is over 100 µM; in the assay on MDA-N, 59.5 µM; in the assay on COLO 205 colon it was over 100 µM.
In the case of `CCn1nc(C)c2c1C(=O)NCC(=O)N2`, the TGI in the assay on U251 CNS, in the assay with HOP-92 NSCLC, in the assay with MDA-MB-435, with HCT-15 colon, in the assay on OVCAR-5 ovarian and with A549 NSCLC was over 100 µM each time. For the same compound, the TGI in the assay on UO-31 renal, in the assay on MDA-N, in the assay with HT29 colon and with COLO 205 colon was over 100 µM throughout.
Consider `COC1CC(N)(c2ccccc2)C(O)C(C)O1` (stereo not given), for which the TGI in the assay with U251 CNS, with HOP-92 NSCLC, with MDA-MB-435, in the assay with HCT-15 colon, in the assay with OVCAR-5 ovarian and in the assay with A549 NSCLC was over 100 µM throughout. Moreover, the TGI in the assay with UO-31 renal, in the assay on MDA-N and in the assay with COLO 205 colon was over 100 µM throughout.
On to `O=C(O)CCc1nc2c(n1-c1ccccc1)C(=O)c1ccccc1C2=O`, for which the TGI in the assay with U251 CNS was over 100 µM; with HOP-92 NSCLC, 61.3 µM; in the assay on MDA-MB-435 it was over 100 µM; in the assay with HCT-15 colon, over 100 µM; in the assay on OVCAR-5 ovarian it was over 100 µM; in the assay with A549 NSCLC it was over 100 µM. Besides, the TGI in the assay on UO-31 renal, in the assay on MDA-N, in the assay on HT29 colon and with COLO 205 colon was over 100 µM in each case.
Turning to `N#CCCN(CCC#N)c1ccc(/C=C2\N=C(c3ccccc3)N(c3ccc(F)cc3)C2=O)cc1`, the TGI with U251 CNS, in the assay on HOP-92 NSCLC, with MDA-MB-435, with HCT-15 colon, in the assay with OVCAR-5 ovarian and with A549 NSCLC was over 100 µM throughout. Further, the TGI in the assay with UO-31 renal, with MDA-N, with HT29 colon and in the assay with COLO 205 colon was over 100 µM throughout.
Consider `[N-]=[N+]=Nc1c(Cc2ccccc2)c(Cl)nc2ccccc12`, for which the TGI in the assay on HOP-92 NSCLC was 64.4 µM; in the assay on MDA-MB-435 it was 37.2 µM; in the assay with HCT-15 colon, over 100 µM; in the assay on OVCAR-5 ovarian, over 100 µM; in the assay with A549 NSCLC, over 100 µM; in the assay with UO-31 renal, over 100 µM. The figures for the TGI with MDA-N, in the assay with HT29 colon and with COLO 205 colon were over 100 µM, over 100 µM and 35.2 µM, respectively.
With `COc1cccc(N2C(=O)CSC2c2cccc(Oc3ccccc3)c2)c1` (stereo not given), the TGI is 19.3 µM in the assay with U251 CNS; 62.8 µM with HOP-92 NSCLC; over 100 µM with MDA-MB-435; 76.9 µM in the assay with HCT-15 colon; over 100 µM in the assay with OVCAR-5 ovarian; over 100 µM in the assay on A549 NSCLC. In addition, the TGI in the assay on UO-31 renal was over 100 µM; with MDA-N, 5.53 µM; in the assay on HT29 colon it was 37.5 µM; with COLO 205 colon it was 10.2 µM.
Regarding `COc1cc(/C=C2\C(=O)N(c3cccc([N+](=O)[O-])c3)C(c3ccccc3)S2(=O)=O)cc(OC)c1OC` (stereo not given), the TGI with U251 CNS, with HOP-92 NSCLC, with MDA-MB-435, with HCT-15 colon, in the assay with OVCAR-5 ovarian and in the assay with A549 NSCLC was over 100 µM in each case. For the same compound, the TGI in the assay with UO-31 renal, with MDA-N, in the assay on HT29 colon and in the assay with COLO 205 colon was over 100 µM throughout.
Regarding `NC(=O)Nc1c(Cl)cc(S(N)(=O)=O)cc1Cl`, the TGI in the assay with U251 CNS, with HOP-92 NSCLC, with MDA-MB-435, in the assay with HCT-15 colon, in the assay with OVCAR-5 ovarian and in the assay with A549 NSCLC was over 100 µM throughout. The TGI with UO-31 renal, in the assay with MDA-N, in the assay on HT29 colon and with COLO 205 colon was over 100 µM each time.
Regarding `CC(C)(C)c1ccccc1N1C(=O)c2ccc3c4c(ccc(c24)C1=O)N(c1ccccc1C(C)(C)C)C3=O`, the TGI in the assay on U251 CNS, in the assay on HOP-92 NSCLC, in the assay with MDA-MB-435, in the assay on HCT-15 colon, in the assay on OVCAR-5 ovarian and with A549 NSCLC was over 100 µM in each case. In addition, the TGI with UO-31 renal, with MDA-N, in the assay with HT29 colon and in the assay on COLO 205 colon was over 100 µM in each case.
For `c1ccc(/C(=N/Nc2nc3ccccc3s2)C2CCCCC2)nc1`, the TGI stood at 35.9 µM with U251 CNS; 22.1 µM in the assay with HOP-92 NSCLC; 39.3 µM with MDA-MB-435; 15.8 µM in the assay with HCT-15 colon; 14.4 µM in the assay with OVCAR-5 ovarian; 76.1 µM in the assay on A549 NSCLC. Further, the TGI in the assay with UO-31 renal is 15.4 µM; in the assay on MDA-N, 34.2 µM; in the assay on HT29 colon it was 16.1 µM; with COLO 205 colon, 13.1 µM.
Consider `Cn1nc2ccc([N+](=O)[O-])c(Cn3nnc4ccccc43)c2n1`, for which the TGI in the assay with U251 CNS, with HOP-92 NSCLC, in the assay on MDA-MB-435, in the assay on HCT-15 colon, with OVCAR-5 ovarian and in the assay on A549 NSCLC was over 100 µM in each case. The TGI in the assay with UO-31 renal, with MDA-N, in the assay with HT29 colon and in the assay on COLO 205 colon was over 100 µM in each case.
As to `O=[N+]([O-])c1ccccc1OCCOc1ccccc1[N+](=O)[O-]`, the TGI in the assay on U251 CNS, with HOP-92 NSCLC, with MDA-MB-435, with HCT-15 colon, in the assay on OVCAR-5 ovarian and with A549 NSCLC was over 100 µM in each case. Moreover, the TGI with UO-31 renal, in the assay on MDA-N, in the assay with HT29 colon and in the assay with COLO 205 colon was over 100 µM each time.
Turning to `CC(C)/C(Cl)=N/OC(=O)Nc1ccc(Br)cc1`, the TGI in the assay with U251 CNS was 37.3 µM; in the assay on HOP-92 NSCLC, 3.35 µM; with MDA-MB-435, 30.7 µM; with HCT-15 colon, 5.34 µM; with OVCAR-5 ovarian it was 28.6 µM; in the assay on A549 NSCLC, 39.5 µM. The TGI was found to be 23.8 µM in the assay with UO-31 renal, 15.7 µM in the assay on MDA-N, 18.5 µM in the assay with HT29 colon and 3.43 µM in the assay with COLO 205 colon.
With `CC1CC[C@@]2(OC1)OC1C[C@H]3[C@@H]4CC=C5CC(OC6OC(CO)C(OC7OC(CO)C(O)C(OC8OCC(O)C(O)C8O)C7OC7OC(CO)C(OC8OC(C)C(OC9OC(C)C(O)C(O)C9O)C(O)C8O)C(O)C7O)C(O)C6O)CCC5(C)[C@H]4CCC3(C)C1[C@@H]2C` (stereo not given in full), the TGI with U251 CNS amounted to 16.3 µM; in the assay on HOP-92 NSCLC it was 14.8 µM; in the assay with MDA-MB-435, 18.4 µM; in the assay with HCT-15 colon, 18.9 µM; with OVCAR-5 ovarian, 14.3 µM; in the assay with A549 NSCLC, 14.5 µM. Also, the values for the TGI in the assay on MDA-N, with HT29 colon and in the assay on COLO 205 colon were 16.2 µM, 15.4 µM and 15.6 µM, respectively.
As to `CCO/C(=N/S(=O)(=O)C(F)(F)F)N(C(C)C)C(C)C`, the TGI in the assay on U251 CNS, with HOP-92 NSCLC, in the assay on MDA-MB-435, in the assay on HCT-15 colon, in the assay on OVCAR-5 ovarian and with A549 NSCLC was over 100 µM throughout. For the same compound, the TGI in the assay with MDA-N, in the assay with HT29 colon and with COLO 205 colon was over 100 µM in each case.
Turning to `C=CCn1c(=O)c(C)cn(COCCO)c1=O`, the TGI in the assay with U251 CNS, in the assay with HOP-92 NSCLC, in the assay with MDA-MB-435, with OVCAR-5 ovarian, in the assay on A549 NSCLC and in the assay on UO-31 renal was over 100 µM throughout. Also, the TGI in the assay with MDA-N, in the assay on HT29 colon and with COLO 205 colon was over 100 µM throughout.
For the compound `Cc1ccc2c(c1)-c1nc(N)c(C#N)c(-c3ccc(Cl)cc3)c1CCS2(=O)=O`, the TGI with U251 CNS was over 100 µM; in the assay with HOP-92 NSCLC, over 100 µM; in the assay on MDA-MB-435 it was over 100 µM; in the assay with HCT-15 colon it was over 100 µM; in the assay with A549 NSCLC it was over 100 µM; in the assay on UO-31 renal, 86.2 µM. Further, the TGI with MDA-N is over 100 µM; with HT29 colon, 63.2 µM; in the assay with COLO 205 colon, 65.6 µM.

The values are drawn from PubChem BioAssay (NCI).
